In patent US10870875B2, “Metalloprotein compositions” (Commonwealth Scientific and Industrial Research Organisation, priority 2014, dated 2020):

Experiments:
[1] = target: T1, recombinant honeybee (Apis mellifera) silk protein AmelF3, unmodified, SEQ ID NO: 39 (Apis mellifera, UniProt A0ACM8QI31); test: Binding of macrocycles/chelates to AmelF3 sponges or films (colour retained after washing, UV/Vis); conditions: qualitative; for Binding properties: sponge, macrocycle in excess, retention of colour after washing; for binding to silk protein (in words): sponge or film
T1 construct: sponges and films
Description: Full length, recombinant honeybee silk proteins (AmelF3) without affinity purification tags, were produced by fermentation in Escherichia coli as described in Weisman et al. (2010). Full length, recombinant Weaver Ant/Green Ant (Oecophylla smaragdina) silk proteins (GA1, GA2, GA3, GA4) without affinity purification tags, were produced by fermentation in Escherichia coli following the same procedures as outlined in Weisman et al. (2010).
(§1) AmelF3 sponges were prepared as described in example 1. […] The colour change observed with honeybee silk indicates a change in the coordination of the iron metal centre within the haem group, producing a material with a similar coordination to red haemoglobin. The colour was not removed by extensive washing with 70% methanol, 0.1M HCl or 0.1M NaCl.
An embodiment of the composition of the present invention was formed by co-drying a solution of AmelF3 and haem b. Briefly, 2 mg haem b and 20 mg AmelF3 silk sponge was dissolved in 1 mL of HFIP overnight at room temperature. The solution was aliquoted into either a cuvette or 24-well plate and dried at room temperature. The dried film was soaked overnight in 70% methanol to make the film insoluble in water.
Alternatively, haem b was ‘leached’ into a pre-formed film. The AmelF3 material was formed as described in example 1. The silk material was soaked in a solution of haem b (0.5 mg/mL; haem b in excess) in 70% methanol solution for between 1 and 48 hours followed by washing with 70% methanol to remove any unbound haem b and dried at room temperature.
AmelF3 films with different ratios of haem b to AmelF3 were prepared by co-drying haem and AmelF3 HFIP solutions. At low haem loadings (haem:protein molar ratios of 1:1 and 1:2), a sharp Soret peak at 404 nm was observed, indicative of all the haem being coordinated (FIG. 3). As the concentration of haem b relative to the protein was increased, the Soret peak broadened and shifted to lower wavelengths indicating an increase in the amount of uncoordinated haem (FIG. 3).
(§2) The ability of sponges generated from recombinant AmelF3 to bind a range of macrocyles was tested by adding a solution of the macrocmacrocycle containing an excess of the macrocycle to be tested to the AmelF3 sponge and observing the colour of the sponge and whether the sponge retained colour after washing. The strength of macrocycle binding was assessed qualitatively by assessing the intensity of the colour retained by the sponge after washing. Strong binding to the sponge refers to the finding that the macrocycle cannot be washed out with aqueous methanol, organic solvents, 0.1 M HCl or 0.1 M NaOH.
(§3) Films generated from recombinant honeybee silk protein AmelF3 containing dicyanocobyrinic acid heptamethyl ester were prepared as described in example 3. UV/Vis spectrum were recorded for a film generated from recombinant AmelF3 containing dicyanocobyrinic acid heptamethyl ester and a solution of dicyanocobyrinic acid heptamethyl ester without AmelF3 (FIG. 8).

[2] = target: T2, recombinant honeybee (Apis mellifera) silk protein AmelF3, SEQ ID NO: 39, containing bound haem b (film) (Apis mellifera, UniProt A0ACM8QI31); test: NO binding to reduced AmelF3-haem b film (UV/Vis); conditions: NO added as diethylamine NONOate to dithionite-reduced film, 50 mM phosphate pH 7; decrease in absorbance at 420 nm, sigmoidal fit modified from Hill equation; read-out: dissociation constant
T2 sequence (A0ACM8QI31 20-335): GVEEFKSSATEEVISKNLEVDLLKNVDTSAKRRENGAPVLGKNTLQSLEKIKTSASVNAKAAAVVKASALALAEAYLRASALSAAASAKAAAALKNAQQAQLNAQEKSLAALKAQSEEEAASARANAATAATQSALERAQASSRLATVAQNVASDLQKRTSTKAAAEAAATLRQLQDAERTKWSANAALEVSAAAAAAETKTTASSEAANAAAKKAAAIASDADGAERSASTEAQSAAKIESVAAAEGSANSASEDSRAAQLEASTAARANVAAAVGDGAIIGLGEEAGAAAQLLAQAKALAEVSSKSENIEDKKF
Text: A. UV/Vis spectra obtained when silk protein films generated from recombinant honeybee silk protein AmelF3 were bound to increasing NO concentrations. B. Ratio change of absorbance change at 420 nm as NO concentrations are increased. Either the decrease in absorbance at 420 nm or increase in absorbance at 390 nm can be used. The decrease in absorbance at 420 nm can be converted into the fraction of nitric oxide binding site occupied by NO and plotted against NO concentration, and fitted to a sigmoidal curve modified from the Hill equation with a dissociation constant of 6.7 μM and a limit of detection of ˜1 μM.
AmelF3-haem b film was used as the porphyrin-silk film. Freshly prepared sodium dithionite (100 mM) in 50 mM phosphate buffer (pH 7) were used as the reducing agent. 10-100 μL was added to a 50 mM phosphate buffer (pH 7) covering the porphyrin-silk film. Sodium persulfate was used at the oxidising agent a similar manner to sodium dithionite. […] Changes in the UV/Vis spectrum were monitored to determine redox states and measure NO binding (FIGS. 10A and 10B). […]
Exposure to increasing NO concentration caused the Soret peak to shift from 421 nm to 395 nm. From 0-7 μM, there was a linear relationship between the decrease in absorbance at 421 nm and the concentration of NO, with a limit of detection for NO of 1 μM.

AmelF3 in film = test: Binding of dicyanocobyrinic acid heptamethyl ester to AmelF3 film (UV/Vis); set-up: species or system Apis mellifera; conditions: peak shift from 370 to 360
Description: as §3

[3] = target: T3, Apis mellifera AmelF3 (SEQ ID NO: 39) variant Tyr76Ala (Apis mellifera, UniProt A0ACM8QI31, Y95A); test: Binding of chelates to AmelF3 Tyr76Ala sponges or films; conditions: sponge washed with aqueous methanol, qualitative
T3 construct: sponge or film
T3 sequence (A0ACM8QI31 entry or part of it Y95A): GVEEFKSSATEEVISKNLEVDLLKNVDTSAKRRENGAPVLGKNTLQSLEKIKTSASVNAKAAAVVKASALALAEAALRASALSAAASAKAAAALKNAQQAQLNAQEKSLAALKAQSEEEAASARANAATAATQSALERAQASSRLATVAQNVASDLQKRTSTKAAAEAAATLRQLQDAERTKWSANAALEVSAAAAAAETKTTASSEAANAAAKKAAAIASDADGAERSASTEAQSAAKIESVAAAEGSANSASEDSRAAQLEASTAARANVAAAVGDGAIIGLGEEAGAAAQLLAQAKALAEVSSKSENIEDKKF
Description: Site directed mutagenesis of honeybee silk proteins was carried using methods known to the person skilled in the art. For example, to generate AmelF3 Tyr76Ala, the forward primer 5′-[…]-3′ (SEQ ID NO: 80) with the corresponding reverse primer was employed and site directed mutagenesis was carried out using Pfx 50 DNA polymerase from Invitrogen following the Pfx50 manufactures instructions. All AmelF3 mutants were expressed and purified using a similar procedure as the unmodified AmelF3 silk protein. To generate AmelF3 Tyr76His, the forward primer 5′-[…]-3′ (SEQ ID NO: 81) with the corresponding reverse primer was employed. To generate AmelF3 Ala97His, the forward primer 5′-[…]-3′ (SEQ ID NO: 82) was used.
To test whether Tyr76 was indeed the coordinating ligand, the present inventors replaced Tyr76 with an alanine using site directed mutagenesis of the AmelF3 silk gene.

[4] = tested on: materials generated from recombinant honeybee silk proteins (AmelF3 sponge); test: Binding of macrocycles to recombinant AmelF3 honeybee silk sponges, judged by colour retained after washing; set-up: species or system Apis mellifera; conditions: excess macrocycle in solution, intensity of colour retained after washing
Description: as §1, §2

Compound | Binding properties [1] | binding to silk protein (in words) [1] | other results
C=Cc1c(C)c2cc3[nH]c(cc4nc(cc5nc(cc1[nH]2)C(C)=C5CCC(=O)OC)C(CCC(=O)OC)=C4C)c(C)c3C=C | Does not bind | – | –
[N]=O [NO, nitric oxide] | – | – | Kd [2]: 6.7 µM
CCC1=C(C)c2cc3[nH]c(cc4[nH]c(cc5nc(cc1n2)C(C)=C5CC)c(C)c4CC)c(C)c3CC [drawing 2] | Does not bind | – | –
COC(=O)CC[C@@H]1C2=NC(=C\C3=NC(=C(/C)C4=N[C@@](C)([C@@H]5[N-]/C(=C\2C)[C@](C)(CCC(=O)OC)[C@H]5CC(=O)OC)[C@@](C)(CC(=O)OC)[C@@H]4CCC(=O)OC)/[C@@](C)(CC(=O)OC)[C@@H]3CCC(=O)OC)/C1(C)C.[C-]#N.[C-]#N.[Co+3] [Dicyanocobyrinic acid heptamethyl ester] | – | – | binding to AmelF3 in film (AmelF3 in film): strongly blind
CCC1=C(C)c2cc3[nH]c(cc4[nH]c(cc5nc(cc1n2)C(C)=C5CC)c(C)c4CC)c(C)c3CC [etioporphryin I] | – | no binding is obtained | –
COC(=O)CC[C@@H]1C2=NC(=C\C3=NC(=C(/C)C4=N[C@@](C)([C@@H]5[N-]/C(=C\2C)[C@](C)(CCC(=O)OC)[C@H]5CC(=O)OC)[C@@](C)(CC(=O)OC)[C@@H]4CCC(=O)OC)/[C@@](C)(CC(=O)OC)[C@@H]3CCC(=O)OC)/C1(C)C.[C-]#N.[C-]#N.[Co+3] [Dicyanocobyrinic acid heptamethyl ester, dicyanocobyrinic acid heptamethyl ester] | – | strongly blind to AmelF3 | binding to silk protein (in words) [3]: did not bind
COC(=O)CCC1=C(C)c2cc3[nH]c(cc4nc(cc5[nH]c(cc1n2)c(CCC(=O)OC)c5C)C(S(=O)(=O)O)=C4C)c(S(=O)(=O)O)c3C [drawing 4] | Weak binding | – | Binding properties [4]: Weak binding
O=S(=O)(O)c1ccc2c(c1)-c1nc-2nc2[nH]c(nc3nc(nc4[nH]c(n1)c1ccc(S(=O)(=O)O)cc41)-c1ccc(S(=O)(=O)O)cc1-3)c1ccc(S(=O)(=O)O)cc21 [phthalocyanine tetrasulfonic acid] | Strongly binds | – | –
O=S(=O)(O)c1ccc2c(c1)-c1nc-2nc2[nH]c(nc3nc(nc4[nH]c(n1)c1ccc(S(=O)(=O)O)cc41)-c1ccc(S(=O)(=O)O)cc1-3)c1ccc(S(=O)(=O)O)cc21.[Zn+2] [Zn phthalocyanine tetrasulfonic acid, zinc phthalocyanine tetrasulfonic acid] | – | can bind | –
C=CC1=C(C)c2cc3[nH]c(cc4nc(cc5[nH]c(cc1n2)c(C)c5CCC(=O)O)C(CCC(=O)O)=C4C)c(C)c3C=C [drawing 1] | Strongly binds to silk | – | Binding properties [4]: Strongly binds to silk
C1=CC2C3=NC(=N\C4N/C(=N\C5=NC(=N\C6N/C(=N\3)c3ccccc36)/C3C=CC=CC53)c3ccccc34)/C2C=C1 (stereo not drawn) [drawing 5] | – | – | Binding properties [4]: Does not bind
C1=CC2C3=NC(=N\C4N/C(=N\C5=NC(=N\C6N/C(=N\3)c3ccccc36)/C3C=CC=CC53)c3ccccc34)/C2C=C1 (stereo not drawn) [drawing 5, Phthalocyanine] | – | no binding is obtained | –
